Measured values published in patent US8772480B2, “Inhibitors of PI3 kinase and/or mTOR” (priority 2009, dated 2014).

Experiments:
PI3Kα = PI3Kα (Homo sapiens (Human), UniProt P42336); details: read-out: PI3Kα AlphaScreen ® Ki
[1] = tested on: phosphorylation of Akt at Serine 473 in U87 MG cells; test: cells; details: Homo sapiens, U-87 MG, 2 h, read-out: U87Cell IC50, pAkt (Ser 473), U87 MG cells, two hours with compound

Chain of PI3Kα (P42336 whole entry): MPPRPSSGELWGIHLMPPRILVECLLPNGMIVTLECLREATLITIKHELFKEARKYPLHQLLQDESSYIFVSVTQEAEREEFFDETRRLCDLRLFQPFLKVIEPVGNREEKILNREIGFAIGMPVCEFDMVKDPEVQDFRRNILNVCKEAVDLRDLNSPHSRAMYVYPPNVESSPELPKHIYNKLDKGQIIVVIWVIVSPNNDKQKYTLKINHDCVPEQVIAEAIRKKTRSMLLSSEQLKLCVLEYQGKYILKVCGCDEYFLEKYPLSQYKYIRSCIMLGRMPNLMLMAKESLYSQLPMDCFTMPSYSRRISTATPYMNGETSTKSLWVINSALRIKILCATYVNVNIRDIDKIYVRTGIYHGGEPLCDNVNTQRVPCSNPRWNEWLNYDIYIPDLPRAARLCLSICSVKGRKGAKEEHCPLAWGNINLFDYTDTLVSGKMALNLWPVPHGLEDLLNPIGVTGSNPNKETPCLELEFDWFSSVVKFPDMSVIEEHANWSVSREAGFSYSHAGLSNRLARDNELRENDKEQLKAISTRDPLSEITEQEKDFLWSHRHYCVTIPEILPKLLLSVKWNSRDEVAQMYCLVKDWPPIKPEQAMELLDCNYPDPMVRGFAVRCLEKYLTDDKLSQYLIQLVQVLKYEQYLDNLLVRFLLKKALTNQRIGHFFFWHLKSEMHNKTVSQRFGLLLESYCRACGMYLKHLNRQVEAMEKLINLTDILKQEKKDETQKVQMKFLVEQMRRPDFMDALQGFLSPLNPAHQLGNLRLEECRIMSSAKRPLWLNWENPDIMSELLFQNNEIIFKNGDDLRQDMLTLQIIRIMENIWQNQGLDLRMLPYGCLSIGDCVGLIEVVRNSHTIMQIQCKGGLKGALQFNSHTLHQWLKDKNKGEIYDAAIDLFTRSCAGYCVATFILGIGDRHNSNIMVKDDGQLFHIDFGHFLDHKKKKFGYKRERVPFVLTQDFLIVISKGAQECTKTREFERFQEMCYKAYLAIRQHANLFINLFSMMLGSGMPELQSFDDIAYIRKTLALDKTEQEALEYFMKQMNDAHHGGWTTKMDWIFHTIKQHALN
Chain of PI3Kα (P27986 whole entry partner): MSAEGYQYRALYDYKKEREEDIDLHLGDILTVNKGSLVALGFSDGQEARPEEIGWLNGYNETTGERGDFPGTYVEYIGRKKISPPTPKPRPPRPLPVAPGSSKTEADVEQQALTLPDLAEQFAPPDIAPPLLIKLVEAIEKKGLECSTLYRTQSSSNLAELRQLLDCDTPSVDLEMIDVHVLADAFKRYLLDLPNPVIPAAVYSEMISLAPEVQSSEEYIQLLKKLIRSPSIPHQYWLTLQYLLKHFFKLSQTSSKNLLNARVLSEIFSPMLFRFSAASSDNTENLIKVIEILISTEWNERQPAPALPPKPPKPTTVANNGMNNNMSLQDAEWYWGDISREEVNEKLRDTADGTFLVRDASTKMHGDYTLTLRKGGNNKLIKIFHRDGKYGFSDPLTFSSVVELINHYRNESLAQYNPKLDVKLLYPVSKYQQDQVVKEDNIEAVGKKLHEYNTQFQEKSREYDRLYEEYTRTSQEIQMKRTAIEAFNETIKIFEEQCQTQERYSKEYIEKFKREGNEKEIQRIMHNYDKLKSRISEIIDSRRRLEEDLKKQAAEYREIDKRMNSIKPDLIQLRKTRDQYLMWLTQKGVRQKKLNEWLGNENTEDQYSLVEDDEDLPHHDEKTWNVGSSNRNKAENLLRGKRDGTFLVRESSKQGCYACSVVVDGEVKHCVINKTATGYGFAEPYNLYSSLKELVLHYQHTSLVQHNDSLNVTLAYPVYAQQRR

Ki (PI3Kα)	IC50 [1]	SMILES
7 nM	16 nM	COc1ccc(Nc2ncc(CN3CCN(S(C)(=O)=O)C[C@H]3C)cc2-c2nc(C)nc(N)n2)cn1 [Example 158, (R)-4-(2-(6-Methoxypyridin-3-Ylamino)-5-((2-Methyl-4-(Methylsulfonyl)Piperazin-1-yl)Methyl)Pyridin-3-yl)-6-Methyl-1,3,5-Triazin-2-Amine]
68 nM	57 nM	Cc1nc(N)nc(-c2cc(CN3CCN(S(C)(=O)=O)CC3)cnc2Nc2ccc3ccncc3c2)n1 [Example 326, N-(3-(4-Amino-6-Methyl-1,3,5-Triazin-2-yl)-5-((4-(Methylsulfonyl)Piperazin-1-yl)Methyl)Pyridin-2-yl)Isoquinolin-7-Amine]
59 nM	106 nM	COc1ccc(Nc2ncc(C(N)C(F)(F)F)cc2-c2nc(C)nc(N)n2)cn1 (stereo not shown) [Example 324, 4-(5-(1-Amino-2,2,2-Trifluoroethyl)-2-(6-Methoxypyridin-3-Ylamino)Pyridin-3-yl)-6-Methyl-1,3,5-Triazin-2-Amine]
21 nM	110 nM	COCCNC(=O)c1cnc(Nc2ccc(OC)nc2)c(-c2nc(C)nc(N)n2)c1 [Example 153, 5-(4-Amino-6-Methyl-1,3,5-Triazin-2-yl)-N-(2-Methoxyethyl)-6-((6-Methoxy-3-Pyridinyl)Amino)-3-Pyridinecarboxamide]
23 nM	204 nM	COc1ccc(Nc2ncc(N3CCN(S(C)(=O)=O)CC3)cc2-c2nc(C)nc3[nH]cnc23)cn1 [Example 99, N-(6-Methoxypyridin-3-yl)-3-(2-Methyl-9H-Purin-6-yl)-5-(4-(Methylsulfonyl)Piperazin-1-yl)Pyridin-2-Amine]
74 nM	17 nM	COc1ncc(Nc2ncc(C3(N)CC3)cc2-c2nc(C)nc(N)n2)cc1F [Example 300, 4-(5-(1-Aminocyclopropyl)-2-(5-Fluoro-6-Methoxypyridin-3-Ylamino)Pyridin-3-yl)-6-Methyl-1,3,5-Triazin-2-Amine]
505 nM	3170 nM	Cc1nc(N)nc(-c2cc(CN3CCN(C(=O)N(C)C)CC3)cnc2Nc2cnc(O)c(F)c2)n1 [Example 160, 4-((5-(4-Amino-6-Methyl-1,3,5-Triazin-2-yl)-6-(5-Fluoro-6-Hydroxypyridin-3-Ylamino)Pyridin-3-yl)Methyl)-N,N-Dimethylpiperazine-1-Carboxamide]
963 nM	> 10000 nM	Cc1nc(N)nc(-c2cccnc2Nc2cccc(OC(F)F)c2)n1 [Example 164, 4-(2-(3-(Difluoromethoxy)Phenylamino)Pyridin-3-yl)-6-Methyl-1,3,5-Triazin-2-Amine]
97 nM	148 nM	COc1ccc(Nc2nc(N3CCOCC3)ncc2-c2nc(C)nc(N)n2)cn1 [Example 120, 4-(4-(6-methoxypyridin-3-ylamino)-2-morpholinopyrimidin-5-yl)-6-methyl-1,3,5-triazin-2-amine]
377 nM	> 10000 nM	COc1ncc(Nc2ncc(C(C)(C)C(=O)O)cc2-c2nc(C)nc(N)n2)cc1F [Example 346, 2-(5-(4-Amino-6-Methyl-1,3,5-Triazin-2-yl)-6-(5-Fluoro-6-Methoxypyridin-3-Ylamino)Pyridin-3-yl)-2-Methylpropanoic Acid]
5 nM	185 nM	COc1ccc(Nc2ncc(C(O)c3ccc(S(C)(=O)=O)cc3)cc2-c2nc(C)nc3[nH]cnc23)cn1 (stereo not shown) [Example 139, (6-(6-methoxypyridin-3-ylamino)-5-(2-methyl-9H-purin-6-yl)pyridin-3-yl)(4-(methylsulfonyl)phenyl)methanol]
611 nM	> 10000 nM	Cc1ccc2cc(Nc3ncccc3-c3nc(C)nc(N)n3)ccc2n1 [Example 171, N-(3-(4-Amino-6-Methyl-1,3,5-Triazin-2-yl)Pyridin-2-yl)-2-Methylquinolin-6-Amine]
45 nM	245 nM	COc1ccc(Nc2nc3ccccc3cc2-c2nc(C)nc(N)n2)cn1 [Example 238, 3-(4-Amino-6-Methyl-1,3,5-Triazin-2-yl)-N-(6-Methoxypyridin-3-yl)Quinolin-2-Amine]
6 nM	34 nM	COc1ccc(Nc2ncc(C(C)N3CCN(S(C)(=O)=O)CC3)cc2-c2nc(C)nc3[nH]cnc23)cn1 (stereo not shown) [Example 140, N-(6-methoxypyridin-3-yl)-3-(2-methyl-9H-purin-6-yl)-5-(1-(4-(methylsulfonyl)piperazin-1-yl)ethyl)pyridin-2-amine]
60 nM	151 nM	COc1ccc(Nc2ncc(-c3ccnnc3)cc2-c2nc(C)nc(N)n2)cn1 [Example 252, 4-(2-(6-Methoxypyridin-3-Ylamino)-5-(Pyridazin-4-yl)Pyridin-3-yl)-6-Methyl-1,3,5-Triazin-2-Amine]
691 nM	941 nM	Cc1nc(N)nc(-c2cccnc2Nc2ccc(NC(=O)NC(C)C)nc2)n1 [Example 192, 1-(5-(3-(4-Amino-6-Methyl-1,3,5-Triazin-2-yl)Pyridin-2-Ylamino)Pyridin-2-yl)-3-Isopropylurea]

Ki (PI3Kα)	IC50 [1]	SMILES
33 nM	916 nM	COc1ccc(Nc2ncc(Nc3ccccc3)cc2-c2nc(C)nc3[nH]cnc23)cn1 [Example 92, N2-(6-methoxypyridin-3-yl)-3-(2-methyl-9H-purin-6-yl)-N-5-phenylpyridine-2,5-diamine]
5 nM	7 nM	COc1ncc(Nc2ncc(CN3CCN(S(C)(=O)=O)[C@H](C)C3)cc2-c2nc(C)nc(N)n2)cc1F [Example 364, (R)-4-(2-(5-Fluoro-6-Methoxypyridin-3-Ylamino)-5-((3-Methyl-4-(Methylsulfonyl)Piperazin-1-yl)Methyl)Pyridin-3-yl)-6-Methyl-1,3,5-Triazin-2-Amine]
34 nM	80 nM	COc1ccc(Nc2ncc(C(N3CCN(S(C)(=O)=O)CC3)C(F)(F)F)cc2-c2nc(C)nc(N)n2)cn1 (stereo not shown) [Example 321, 4-(2-(6-Methoxypyridin-3-Ylamino)-5-(2,2,2-Trifluoro-1-(4-(Methylsulfonyl)Piperazin-1-yl)Ethyl)Pyridin-3-yl)-6-Methyl-1,3,5-Triazin-2-Amine]
20 nM	204 nM	Cc1nc(N)nc(-c2cc([C@@H](C)N3CCN(S(C)(=O)=O)CC3)cnc2Nc2cc(F)c3cccnc3c2)n1 [Example 287, (R)—N-(3-(4-Amino-6-Methyl-1,3,5-Triazin-2-yl)-5-(1-(4-(Methylsulfonyl)Piperazin-1-yl)Ethyl)Pyridin-2-yl)-5-Fluoroquinolin-7-Amine]
64 nM	143 nM	COc1ccc(Nc2ncc(C(=O)N3CCOCC3)cc2-c2nc(C)nc(N)n2)cn1 [Example 151, 4-(2-((6-Methoxy-3-Pyridinyl)Amino)-5-(4-Morpholinylcarbonyl)-3-Pyridinyl)-6-Methyl-1,3,5-Triazin-2-Amine]
47 nM	180 nM	COc1ccc(Nc2ncc(OC(F)F)cc2-c2nc(C)nc(N)n2)cn1 [Example 262, 4-(5-(Difluoromethoxy)-2-(6-Methoxypyridin-3-Ylamino)Pyridin-3-yl)-6-Methyl-1,3,5-Triazin-2-Amine]
4 nM	24 nM	Cc1nc(N)nc(-c2cc([C@@H](C)N3CCN(S(C)(=O)=O)C[C@@H]3C)cnc2Nc2ccc3scnc3c2)n1 [Example 293, N-(3-(4-Amino-6-Methyl-1,3,5-Triazin-2-yl)-5-((R)-1-((S)-2-Methyl-4-(Methylsulfonyl)Piperazin-1-yl)Ethyl)Pyridin-2-yl)Benzo[D]Thiazol-5-Amine]
113 nM	172 nM	COc1ccc(Nc2nc(N)ncc2-c2nc(C)nc(N)n2)cn1 [Example 118, 5-(4-amino-6-methyl-1,3,5-triazin-2-yl)-N4-(6-methoxypyridin-3-yl)pyrimidine-2,4-diamine]
8 nM	8 nM	COc1ccc(Nc2ncc([C@H](C)N3CCN(S(C)(=O)=O)CC3)cc2-c2nc(C)nc(N)n2)cn1 [Example 145, (S)-4-(2-(6-Methoxypyridin-3-Ylamino)-5-(1-(4-(Methylsulfonyl)Piperazin-1-yl)Ethyl)Pyridin-3-yl)-6-Methyl-1,3,5-Triazin-2-Amine]
12 nM	37 nM	COc1ncc(Nc2ncc(C(C)(C)O)cc2-c2nc(C)nc(N)n2)cc1C [Example 354, 2-(5-(4-Amino-6-Methyl-1,3,5-Triazin-2-yl)-6-(6-Methoxy-5-Methylpyridin-3-Ylamino)Pyridin-3-yl)Propan-2-ol]
43 nM	87 nM	Cc1nc(N)nc(-c2cc(CN3CCN(S(C)(=O)=O)CC3)cnc2Nc2ccc3ncsc3c2)n1 [Example 241, N-(3-(4-Amino-6-Methyl-1,3,5-Triazin-2-yl)-5-((4-(Methylsulfonyl)Piperazin-1-yl)Methyl)Pyridin-2-yl)Benzo[D]Thiazol-6-Amine]
47 nM	384 nM	COc1ccc(Nc2ncc(N3CC[C@H](O)C3)cc2-c2nc(C)nc3[nH]cnc23)cn1 [Example 205, (3S)-1-(6-((6-Methoxy-3-Pyridinyl)Amino)-5-(2-Methyl-9H-Purin-6-yl)-3-Pyridinyl)-3-Pyrrolidinol]
442 nM	2300 nM	Cc1nc(N)nc(-c2cccnc2Nc2ccc(F)c(F)c2)n1 [Example 248]
98 nM	450 nM	Cc1nc(N)cc(-c2nccnc2Nc2cccc3[nH]ncc23)n1 [Example 112, N-(3-(6-amino-2-methylpyrimidin-4-yl)pyrazin-2-yl)-1H-indazol-4-amine]
124 nM	1570 nM	Cc1nc(N)cc(-c2nc3ccccc3nc2Nc2cccc3[nH]ncc23)n1 [Example 180, 3-(6-Amino-2-Methylpyrimidin-4-yl)-N-(1H-Indazol-4-yl)Quinoxalin-2-Amine]
110 nM	70 nM	CCC(N)(CC)c1cnc(Nc2cnc(OC)c(F)c2)c(-c2nc(C)nc(N)n2)c1 [Example 301, 4-(5-(3-Aminopentan-3-yl)-2-(5-Fluoro-6-Methoxypyridin-3-Ylamino)Pyridin-3-yl)-6-Methyl-1,3,5-Triazin-2-Amine]
